Source: patent US11479604B2, “Immunomodulatory peptides and methods for modulating the immune system in a subject” (Recepta Biopharma S.A., priority 2017, dated 2022)
“Also recorded” adds a separate entry of the source.

Columns and labels:
[1] = test system: B16F10-Nex2 melanoma cells; settings: as determined in U.S. Pat. No. 9,193,797 B2; cited from earlier work
[2] = test system: mo-DC obtained from cancer patients' monocytes; assay: Surface phenotype of mo-DC from cancer patients; type: cell-based, human
Method: (§1) Peripheral blood mononuclear cells (PBMCs) were isolated by centrifugation over Ficoll-Paque Plus (GE Healthcare). After a 2 h-incubation in plastic 6-well plates, non-adherent cells were removed from culture and adherent cells (monocytes) were cultivated for 7 days in RPMI-1640 culture medium (Gibco, Grand Island, N.Y., USA), supplemented with 10% FCS (Gibco) plus antibiotic-antimycotic (Gibco) and in the presence of GM-CSF (50 ng/ml—Peprotech, Mexico) and IL-4 (50 ng/ml—Peprotech). At day 5 of culture TNF-α (50 ng/ml; Peprotech, Mexico) was added for mo-DC maturation.
(§2) Human cells were analyzed in a similar manner, but staining was performed in BSA-PBS, without EDTA. Antibodies against CD11c, CD14, CD80, CD83, CD86, HLA-ABC, HLA-DR, CCR7, PD-L1, conjugated with different fluorochromes and live/dead labeling (Molecular Probes, Oregon, USA) were used. Acquisition was performed in a FACSCanto II analyzer (BD Biosciences) and analyzed with the FlowJo Software X.10.07r2 (Tree Star).
Since it is well known that mo-DC from cancer patients can be functionally biased, but are not always so, the patients were separated into two groups, according to their mo-DC ability to induce allogeneic T cell proliferation. Patients whose mo-DC induced less than 35% of the phytohemagglutinin A (PHA)-induced response constituted one group (“defective”) and those whose mo-DC induced a response higher than 35% of the PHA response, the other (“normal”).

CD11c+ cells = assay: TGF-beta1 ELISA of CD11c+ cells from lymphoid organs of melanoma-bearing treated mice; type: in vivo, C57Bl6 mice; settings: 300 μg/dose i.p., day 17
Method: Animals were sacrificed on day 17 and their lungs, cervical and axillary lymph nodes and spleen were processed for examination. Lymph nodes and spleen were macerated separately, DMEM was added and passed through a cell strainer. CD11c+ cells were isolated using mouse CD11c+ beads and magnetic sorting. Cells were suspended in R10 medium and plated in […] at 10^6 cells/well. Cells were incubated for 24 h with or without tumor cell lysate (B16F10 stimulus). The supernatant was used in a TGF-beta1 ELISA test.

[3] = test system: human mo-DC from healthy donors; assay: mo-DC generated under tolerogenic, TNF-alpha or LPS conditions, flow cytometry; type: cell-based
Method: To further evaluate and confirm this property, mo-DC were generated from healthy donors cells in three different conditions, all in the presence of GM-CSF (50 ng/mL) and IL-4 (50 ng/mL). To one group of cells at day 5, TGF-beta ([…]) and IL-10 (1 ug/mL) were added; to a second group, at day 5, TNF-alpha was added and to a third group, LPS (100 ng/mL) was added at day 6. The first condition is known to induce phenotypic changes in mo-DC consistent with a tolerogenic activity of the cells, while both other conditions generate mature mo-DC, with LPS representing a stronger maturation stimulus than TNF-alpha. […] At day 7 all cells were harvested and analyzed by flow cytometry.

B16F10-Nex2 cells = assay: Anti-melanoma antibodies in sera of treated mice; type: in vivo; settings: 1/5 diluted sera; BSA treated or untreated tumor cells
human mo-DC = assay: Expression of MIF receptor and co-receptors by human mo-DC; type: cell-based
Method: CD44 expression was evaluated by BV-421-labeled monoclonal antibodies and negative controls in the figure refer to unlabeled cells.
Negative controls in the figure refer to unlabeled cells.
The parameters included in the analysis were the expression of HLA-DR (BV-510 labeled mAb), PD-L1 (PE-labeled mAb), CD44 (BV-421-labeled mAb), CD74 (FITC-labeled mAb) and CXCR4 (PE-Cy5-labeled mAb).

[4] = test system: human monocyte-derived dendritic cells (mo-DC); assay: Membrane phenotype of human mo-DC from healthy donors; type: cell-based
Method: as §1, §2

[5] = test system: Myeloid DCs stimulated with recombinant mouse MIF; assay: Western blotting of MIF signalling in dendritic cells pre-treated with peptide; type: cell-based
Method: Protein lysates were separated by electrophoresis, and immunoblotting analyses were performed for: total AKT, total p44/42 MAPK (ERK1/2), total IKKα, total IkBα, total NF-kB p65, phospho-AKT (Ser473), phospho-ERK1/2 (Thr202/Tyr204), phospho-IKKα/β (Ser176/180), phospho-IkBα (Ser32) and phospho-NFkB p65 (Ser536). GAPDH was assayed for loading control. HRP-conjugated secondary antibodies were used, followed by incubation with the ECL substrate (Millipore, Billerica, Mass.). All primary and secondary antibodies were purchased from Cell Signaling Technologies (Beverly, Mass., USA). Anti-CD74 receptor was also assayed (Abcam, Cambridge, UK). Phosphorylation ratios were quantified using ImageJ software. Results are represented in arbitrary units normalized to untreated control lanes.
Early incubation with MIF increased p-Akt (Ser473). […] MIF also triggered p-ERK1/2 formation in DCs.

[6] = test system: LPS stimulated DCs characterized by CD11c+ MHC-II+; assay: Co-stimulatory markers of LPS stimulated murine bone-marrow DCs; type: cell-based
Description: Rb9 immunomodulation of murine bone-marrow dendritic cells (DCs) was also examined focusing on co-stimulatory markers.

[7] = tolerogenic conditions (TGF-beta+IL-10)

## [CARGETARATFAYWGQGC], NH2 (C-C) [Rb9]
[1]
  in vivo protection against metastatic melanoma by CDRs of RebMab200: displayed this in vivo protection
[2]; all patients
  effects on surface phenotype of cancer patients' mo-DC: heterogeneous
[2]; patients whose mo-DC induced less than 35% of the PHA-induced response
  effect on phenotype (differentiation, maturation) of "defective" mo-DC: clearly affected the phenotype
[2]; patients whose mo-DC induced more than 35% of the PHA response
  effect on phenotype of "normal" mo-DC: little effect
CD11c+ cells
  TGF-beta in tumor-lysate stimulated CD11c+ cells from the spleen: increased
CD11c+ cells; vs vehicle (PBS) control cells stimulated by melanoma lysate
  TGF-beta secreted by lymph node CD11c+ cells: greatly reduced
[3]; LPS-treated cells
  number of CD11c+HLA-DR+ cells: decreased the number of cells
[3]; TGF-beta+IL-10 group
  percentage of CD11c+HLA-DR+ cells: increased the percentage of cells
[3]; TNF group
  percentage of CD11c+HLA-DR+ cells: little effect
[3]; mild stimulus (TNF-alpha)
  co-stimulatory potential (CD80 and CD86 double-positive cells): partially inhibitory
  maturation of mo-DC (HLA-DR+CD83+): enhanced their maturation
[3]; strongly stimulated by LPS
  co-stimulatory potential (CD80 and CD86 double-positive cells): clearly inhibitory
  maturation of mo-DC (HLA-DR+CD83+): inhibitory
[3]; [7]
  co-stimulatory potential (CD80 and CD86 double-positive cells): increased their co-stimulatory potential
  maturation of mo-DC (HLA-DR+CD83+): increased the maturation
B16F10-Nex2 cells
  reactivity of sera with B16F10-Nex2 cells, i.d. relative to i.p. administration: 4-5 times
Human mo-DC; LPS-stimulated human mo-DC
  CD74^lowCXCR4^low cell subpopulation (tSNE analysis): disappearance of a CD74^lowCXCR4^low cell subpopulation
Human mo-DC; LPS-stimulated human mo-DC, 16.7% without peptide
  expression of the MIF co-receptor CXCR4 after treatment: 28.2%
Human mo-DC; LPS-stimulated human mo-DC, 56.8% without peptide
  expression of the MIF receptor CD74 after treatment: 87.5%
Human mo-DC; TGF-beta+IL-10-treated human mo-DC
  reduction in CD44 intensity (MFI): 20%
Human mo-DC; TGF-beta+IL-10-treated human mo-DC, 57% without peptide
  frequency of CD44 positive cells after treatment: 52%
[4]; 50 μg/mL at day 5, analysis 2 days later
  expression of activation markers on immature mo-DC: enhanced the expression of activation markers
[4]; 50 μg/mL peptide + TNF-alpha 50 ng/mL at day 5
  expression of maturation markers on mo-DC with TNF-alpha: further enhancing the expression of maturation markers
[5]; DCs pre-incubated with peptide 6 h, then rMIF
  ERK1/2 phosphorylation: reduced p-ERK1/2
[5]; DCs pre-incubated with peptide 6 h, then rMIF, early (2 min), vs rMIF alone
  Akt phosphorylation (Ser473): Phosphorylation increased even more
[5]; DCs pre-stimulated 6 h, then recombinant-MIF, 5, 10 and 20 min
  NFkB p65 phosphorylation (Ser536): tended to attenuate the MIF response; also recorded: decreased intracellular NFkB p65 phosphorylation
[5]; DCs pre-stimulated 6 h, then recombinant-MIF, short incubation
  phosphorylation of IKKαβ and IkBα: tended to attenuate the MIF response; also recorded: decreased IKKαβ and IkBα
[6]
  CD40 expression: regulated CD40 expression
[6]; Rb9 mainly at 50 μg/ml
  expression of CD80 and CD86: significantly stimulated
